Source: patent US7807686B2, “2-(4-oxo-4H-quinazolin-3-yl)acetamides and their use as vasopressin V3 antagonists” (N.V. Organon, priority 2005, dated 2010)

Experiments:
V3 receptor = target: T1, V3 receptor (Rattus norvegicus, UniProt P48974); experiment: Block of AVP-induced ACTH release from rat anterior pituitary corticotrophs; format: cell-based; conditions: inhibition of ACTH release induced by 3×10^-9 mol.L^-1 AVP, ELISA; read-out: V3 receptor antagonism in isolated rat anterior pituitary cells
T1 construct: Anterior pituitary corticotrophs were prepared from adult female Sprague-Dawley rats; from tissue; host or cells: primary anterior pituitary corticotrophs from adult female Sprague-Dawley rats
T1 sequence (P48974 1-425): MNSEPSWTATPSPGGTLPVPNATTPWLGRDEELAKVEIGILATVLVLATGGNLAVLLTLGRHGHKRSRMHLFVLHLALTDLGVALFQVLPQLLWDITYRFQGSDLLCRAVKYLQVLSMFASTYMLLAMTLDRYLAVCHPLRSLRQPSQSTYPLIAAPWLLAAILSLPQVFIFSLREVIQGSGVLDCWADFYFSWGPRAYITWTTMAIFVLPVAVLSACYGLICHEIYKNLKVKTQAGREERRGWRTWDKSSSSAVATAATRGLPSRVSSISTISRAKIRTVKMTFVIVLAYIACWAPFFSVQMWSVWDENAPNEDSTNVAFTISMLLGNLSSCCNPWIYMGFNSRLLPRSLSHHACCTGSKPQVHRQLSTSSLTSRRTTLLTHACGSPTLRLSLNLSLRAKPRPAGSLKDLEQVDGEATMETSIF
Method: The ability of compounds of the invention to act as V3 antagonists in a physiologically relevant system was determined by measuring their ability to block the release of adrenocorticotropic hormone (ACTH) from anterior pituitary corticotrophs in response to treatment with arginine vasopressin (AVP).
Anterior pituitary corticotrophs were prepared from adult female Sprague-Dawley rats and seeded into 48 well plates. The cells were cultured for 4 days prior to exposure to compound. Test compounds were prepared at […] in 100% DMSO. Cells were exposed to a dose response of test compounds for 20 minutes (10^−8 mol.L^−1-10^−5 mol.L^−1). The final concentration of DMSO in the assay was kept constant at 0.3%. The cells were then exposed to 3×10^−9 mol.L^−1 AVP for 120 minutes. Supernatants were harvested and stored at −20° C. ACTH levels were subsequently measured by ELISA following the manufacturer's instructions (Immunodiagnostic systems, UK (Cat No. DX-SDX018)). Each treatment was carried out in quadruplicate and a mean value obtained for the amount of ACTH released. The degree of antagonism was then calculated as a percentage of the amount of ACTH released by agonist alone after adjustment for basal levels of ACTH. A pIC50 was calculated by fitting a Sigmoidal dose response (variable slope) curve with a non-linear (fit) to the data using the software package GraphPad prism. […]

| Compound | melting point [°C] | IC50 (V3 receptor) [nM] |
| --- | --- | --- |
| CCN(CC)C[C@H](C)COc1ccc2nc(-c3cccc(OC)c3)n(CC(=O)NC(C)C)c(=O)c2c1 [Example 4a, (S)-(+)-2-[6-(3-Diethylamino-2-methylpropoxy)-2-(3-methoxyphenyl)-4-oxo-4H-quinazolin-3-yl]-N-isopropylacetamide] | 161 to 163 | – |
| COc1cccc(-c2nc3ccc(OCCCN4CCCCC4)cc3c(=O)n2CC(=O)NC(C)C)c1 [EXAMPLE 2h, N-Isopropyl-2-[2-(3-methoxyphenyl)-4-oxo-6-(3-piperidin-1-ylpropoxy)-4H-quinazolin-3-yl]acetamide] | – | 10 to 100 |
| COc1cccc(-c2nc3ccc(-c4cccc(CN(C)C)c4)cc3c(=O)n2CC(=O)NC(C)C)c1 [EXAMPLE 7k, 2-[6-(3-Dimethylaminomethylphenyl)-2-(3-methoxyphenyl)-4-oxo-4H-quinazolin-3-yl]-N-isopropylacetamide] | – | 100 to 1000 |
